For 42 sequences, target mRNA inhibition results are on record in the OligoGym collection.

Several values for one entry are separate records, joined by “and”; a condition that tells them apart may be missing. Equal entries are not always repeated. After the bases stand the sugars from the 5' end (letter, count) and the backbone: PS all phosphorothioate, else s phosphorothioate and o phosphodiester by linkage. Methylation of C is not given here. e = 2'-O-(2-methoxyethyl) (MOE); k = constrained ethyl (cEt); d = 2'-deoxy (DNA)

This series concerns the target IRF4. As to conditions: ASO.

Consider CACAGGCGCGGACGCA (sugars k3 d10 k3, PS), for which the target mRNA inhibition (SK-MEL-28, 4 µM) worked out at 14%.
The same measure, in the same setting: to AAACACCTCAGCTGAC (sugars k3 d10 k3, PS) belongs 16%.
In the case of GAGGTTGCCGAGATAT (sugars k3 d10 k3, PS), the target mRNA inhibition (MM.1R, 1 µM) was found to be 29%.
With GAATGGCGCATAGGTC (sugars k3 d10 k3, PS), the target mRNA inhibition (MM.1R, 1 µM) came out at 26%.
Regarding CACCAGGTTAAACAGG (sugars k3 d10 k3, PS), the target mRNA inhibition (SK-MEL-28, 4 µM) is -8%.
As to GAACAGGACCTGGTCC (sugars k3 d10 k3, PS), for the setting “SK-MEL-28, 4 µM”, the target mRNA inhibition was found to be 25%.
Regarding “AAGTTCATGTAAAGTC (sugars kkdddddddddkekek, PS)”, under “MM.1R, 1 µM”, the target mRNA inhibition was 34% and 27%.
With TTTCAAATCGACTGCC (sugars k3 d10 k3, PS), for the setting “SK-MEL-28, 4 µM”, the target mRNA inhibition was 31%.
ATGGAGATACTTGTAC (sugars k3 d10 k3, PS): for the setting “SK-MEL-28, 4 µM”, the target mRNA inhibition came to 62%.
As to “GGGATTATATACTGGT (sugars k2 d9 e3 k2, PS)”, the target mRNA inhibition (MM.1R, 1 µM) is 35%.
Regarding GCAATTAGCTCTTCTA (sugars k3 d10 k3, PS), under “SK-MEL-28, 4 µM”, the target mRNA inhibition was found to be 21%.
As to GTCATGGGACATTGGT (sugars k3 d10 k3, PS), the target mRNA inhibition (MM.1R, 1 µM) worked out at 26%.
Regarding GTTGTCTGGCTAGCAG (sugars k4 d8 k4, PS), the target mRNA inhibition (SK-MEL-28, 0.185 µM) was 6% and 4%; the target mRNA inhibition (SK-MEL-28, 4 µM) is 52%; the target mRNA inhibition (SK-MEL-28, 5 µM) is 42% and 44% and 53%; the target mRNA inhibition (SK-MEL-28, 15 µM) was 62% and 65% and 83%.
Turning to “ATTATATACTGGTTGG (sugars k2 d9 e3 k2, PS)”, the target mRNA inhibition (MM.1R, 1 µM) turned out to be 37%.
In the case of “CTATAGTGTTCCAGGA (sugars kkkddddddddkekek, PS)”, for the setting “MM.1R, 1 µM”, the target mRNA inhibition worked out at 23%.
Regarding TGGTACGGGATTTCCG (sugars k3 d10 k3, PS), the target mRNA inhibition (SK-MEL-28, 4 µM) was 37%.
Consider “ACGTGTGCTTGCCAAG (sugars kkdddddddddekeke, PS)”, for which the target mRNA inhibition (MM.1R, 1 µM) is 59% and 61%.
With “AGTATGAGAAACGGCC (sugars e1 k2 d9 k2 e2, PS)”, the target mRNA inhibition (MM.1R, 1 µM) came to 12%.
In the case of TCAGACTGTGCTGCTC (sugars k3 d10 k3, PS), the target mRNA inhibition (SK-MEL-28, 4 µM) was determined as 36%.
Same read-out and setting: to AATAAGCAGAAACAGC (sugars k3 d10 k3, PS) belongs -1%.
Turning to “TGTGTATTACTCTTAG (sugars kkdddddddddkekek, PS)”, the target mRNA inhibition stood at 19% (MM.1R, 0.0625 µM); 32% (MM.1R, 0.25 µM); 85% (MM.1R, 4 µM).
On to TCATACCCTGGATCAC (sugars k3 d10 k3, PS), for which the target mRNA inhibition (SK-MEL-28, 4 µM) was 43%.
Still for that read-out and setting: then GGTAATCTTCTGGATT (sugars k3 d10 k3, PS), with 30%.
With TAACTGTATGGAACCC (sugars k3 d10 k3, PS), the target mRNA inhibition (MM.1R, 1 µM) came out at 28%.
CTGGAGAGCAATGAAC (sugars k3 d10 k3, PS): the target mRNA inhibition (SK-MEL-28, 4 µM) was 67%.
For “TGTAGTATGAGAAACG (sugars kkkdddddddddkeke, PS)”, the target mRNA inhibition (MM.1R, 1 µM) is 29%.
Same read-out and setting: then “AAGCAGTGATGTCAGG (sugars kdddddddddkekeke, PS)”, with 34% and 35%.
Turning to AGTCCTCAAATCTTCA (sugars k3 d10 k3, PS), the target mRNA inhibition (SK-MEL-28, 4 µM) amounted to 54%.
Take TCTCTCCAGTTTGTTG (sugars k3 d10 k3, PS): the target mRNA inhibition (SK-MEL-28, 4 µM) came out at 14%.
In the case of GGTCAACACTTGGAGA (sugars k3 d10 k3, PS), the target mRNA inhibition (MM.1R, 1 µM) is -23%.
As to CTCCTTTTTTGGCTCC (sugars k4 d8 k4, PS), the target mRNA inhibition (SK-MEL-28, 4 µM) worked out at 7%.
Regarding “GGCACATCAATGTTTT (sugars kkdddddddddkdkdk, PS)”, the target mRNA inhibition (MM.1R, 1 µM) is 26% and 16%.
With CCAGAGCAGTAAACGC (sugars k3 d10 k3, PS), the target mRNA inhibition (MM.1R, 1 µM) came to 11%.
Regarding GAGATAGGAAGCACTG (sugars k3 d10 k3, PS), the target mRNA inhibition (SK-MEL-28, 4 µM) worked out at 48%.
Turning to GTTTGCCATGGTATTT (sugars k3 d10 k3, PS), the target mRNA inhibition (MM.1R, 1 µM) was 41% and 50%.
As for AGCAACACGGGAATTT (sugars k3 d10 k3, PS), where the note is “SK-MEL-28, 4 µM”, the target mRNA inhibition worked out at 57%.
For ACATACCTACAAGCAG (sugars k3 d10 k3, PS), the target mRNA inhibition (SK-MEL-28, 4 µM) turned out to be 45%.
For the sequence AGAAGTACGAGCACAT (sugars k3 d10 k3, PS), under “SK-MEL-28, 4 µM”, the target mRNA inhibition stood at 44%.
Regarding GCCTTGGACGGCCCCG (sugars k3 d10 k3, PS), the target mRNA inhibition (SK-MEL-28, 4 µM) stood at 23%.
On to GTGTTTGCCATGGTAT (sugars k3 d10 k3, PS), for which the target mRNA inhibition by setting is: (MM.1R, 0.0625 µM) -1%; (MM.1R, 0.25 µM) 13%; (MM.1R, 1 µM) 57% and 40%; (MM.1R, 4 µM) 70%.
Regarding TGTCACCTGGCAACCA (sugars k3 d10 k3, PS), the target mRNA inhibition (SK-MEL-28, 4 µM) was 9%.
For the sequence GACTGGAGTGAACCCT (sugars k3 d10 k3, PS), under “MM.1R, 1 µM”, the target mRNA inhibition came out at 38%.
